Laboratory results: PubChem BioAssay (NCI)
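Dose response: 5 concentrations. Exposure: 48 h. Format: 96-well plates. Endpoint: linear interpolation; highest concentration if not reached. GI50 is the concentration that inhibits growth by half. The concentration for full growth arrest is given as TGI.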

How the values were obtained:
Test in all cases: inhibition of tumour cell growth, NCI panel, 48 h
[1] = test system: CCRF-CEM leukemia
[2] = test system: IGROV1 ovarian
[3] = test system: OVCAR-3 ovarian
[4] = test system: HT29 colon
[5] = test system: HL-60(TB) leukemia
[6] = test system: SF-539 CNS
[7] = test system: SK-MEL-28 melanoma
[8] = test system: PC-3 prostate
[9] = test system: SK-MEL-5 melanoma
[10] = test system: HCT-116 colon
[11] = test system: NCI-H226 lung
[12] = test system: COLO 205 colon
[13] = test system: NCI-H460 lung
[14] = test system: DU-145 prostate
[15] = test system: OVCAR-8 ovarian
[16] = test system: NCI-H23 lung
[17] = test system: SK-OV-3 ovarian
[18] = test system: HOP-92 NSCLC
[19] = test system: MALME-3M melanoma
[20] = test system: A498 renal
[21] = test system: HCT-15 colon
[22] = test system: U251 CNS
[23] = test system: NCI/ADR-RES ovarian
[24] = test system: SR leukemia
[25] = test system: SW-620 colon
[26] = test system: EKVX NSCLC
[27] = test system: SN12C renal
[28] = test system: HCC-2998 colon
[29] = test system: SK-MEL-2 melanoma
[30] = test system: K-562 leukemia
[31] = test system: RPMI-8226 leukemia
[32] = test system: UO-31 renal
[33] = test system: SF-268 CNS
[34] = test system: CAKI-1 renal
[35] = test system: RXF 393 renal
[36] = test system: MDA-MB-231 breast
[37] = test system: MCF7 breast
[38] = test system: UACC-62 melanoma
[39] = test system: ACHN renal
[40] = test system: A549 NSCLC
[41] = test system: BT-549 breast
[42] = test system: OVCAR-4 ovarian
[43] = test system: LOX IMVI melanoma
[44] = test system: UACC-257 melanoma
[45] = test system: SNB-19 CNS
[46] = test system: HS 578T breast
[47] = test system: M14 melanoma
[48] = test system: TK-10 renal
[49] = test system: MOLT-4 leukemia
[50] = test system: MDA-MB-435
[51] = test system: 786-0 renal
[52] = test system: SNB-75 CNS
[53] = test system: NCI-H522 lung
[54] = test system: OVCAR-5 ovarian
[55] = test system: T-47D breast
[56] = test system: KM12 colon
[57] = test system: SF-295 CNS
[58] = test system: HOP-62 NSCLC

Cc1ccc(Nc2cc(Cl)c([N+](=O)[O-])cc2[N+](=O)[O-])cc1
GI50 [1]: 1.96 µM
TGI [1]: 19.8 µM
GI50 [2]: 3.89 µM
TGI [2]: 10.4 µM
GI50 [3]: 3.33 µM
TGI [3]: 7.85 µM
GI50 [4]: 3.04 µM
TGI [4]: 8.07 µM
GI50 [5]: 3.62 µM
TGI [5]: 14.6 µM
GI50 [6]: 4 µM
TGI [6]: 15.3 µM
GI50 [7]: 2.77 µM
TGI [7]: 7.27 µM
GI50 [8]: 3.59 µM
TGI [8]: 14.2 µM
GI50 [9]: 3.19 µM
TGI [9]: 9.51 µM
GI50 [10]: 2.59 µM
TGI [10]: 6.94 µM
GI50 [11]: 2.59 µM
TGI [11]: 6.81 µM
GI50 [12]: 2.11 µM
TGI [12]: 3.92 µM
GI50 [13]: 2.35 µM
TGI [13]: 5.45 µM
GI50 [14]: 2.95 µM
TGI [14]: 7.55 µM
GI50 [15]: 3.37 µM
TGI [15]: 13.9 µM
GI50 [16]: 3.66 µM
TGI [16]: 14.2 µM
GI50 [17]: 4.55 µM
TGI [17]: 13.1 µM
GI50 [18]: 2.69 µM
TGI [18]: 9.48 µM
GI50 [19]: 5.72 µM
TGI [19]: 14 µM
GI50 [20]: 13.3 µM
TGI [20]: 26.1 µM
GI50 [21]: 4.12 µM
TGI [21]: 16.5 µM
GI50 [22]: 3.36 µM
TGI [22]: 12.4 µM
GI50 [23]: 3.83 µM
TGI [23]: 24 µM
GI50 [24]: 0.927 µM
TGI [24]: 18.1 µM
GI50 [25]: 2.35 µM
TGI [25]: 6.82 µM
GI50 [26]: 14.7 µM
TGI [26]: 29.7 µM
GI50 [27]: 4.1 µM
TGI [27]: 14.6 µM
GI50 [28]: 2.26 µM
TGI [28]: 4.81 µM
GI50 [29]: 3.31 µM
TGI [29]: 8.94 µM
GI50 [30]: 0.614 µM
TGI [30]: > 100 µM
GI50 [31]: 2.92 µM
TGI [31]: 9.45 µM
GI50 [32]: 4.71 µM
TGI [32]: 17.5 µM
GI50 [33]: 3.63 µM
TGI [33]: 10.3 µM
GI50 [34]: 4.19 µM
TGI [34]: 17.4 µM
GI50 [35]: 2.57 µM
TGI [35]: 6.66 µM
GI50 [36]: 4.42 µM
TGI [36]: 15.8 µM
GI50 [37]: 2.7 µM
TGI [37]: 7.68 µM
GI50 [38]: 4.13 µM
TGI [38]: 15.6 µM
GI50 [39]: 4.73 µM
TGI [39]: 16.2 µM
GI50 [40]: 7.76 µM
TGI [40]: 22.1 µM
GI50 [41]: 3.72 µM
TGI [41]: 11.8 µM
GI50 [42]: 4.52 µM
TGI [42]: 16.2 µM
GI50 [43]: 1.15 µM
TGI [43]: 5.62 µM
GI50 [44]: 5.25 µM
TGI [44]: 15.7 µM
GI50 [45]: 6.33 µM
TGI [45]: 17.7 µM
GI50 [46]: 7.63 µM
TGI [46]: > 24.7 µM
GI50 [47]: 3.96 µM
TGI [47]: 15.6 µM
GI50 [48]: 6.03 µM
TGI [48]: 17.5 µM
GI50 [49]: 3.87 µM
TGI [49]: > 52.4 µM
GI50 [50]: 3.07 µM
TGI [50]: 10.8 µM
GI50 [51]: 3.97 µM
TGI [51]: 14 µM
GI50 [52]: 3.91 µM
TGI [52]: 17.5 µM
GI50 [53]: 0.805 µM
TGI [53]: 2.15 µM
GI50 [54]: 6.62 µM
TGI [54]: 20.9 µM
GI50 [55]: 3.28 µM
TGI [55]: 9.51 µM
GI50 [56]: 3.24 µM
TGI [56]: 8.8 µM
GI50 [57]: 14.4 µM
TGI [57]: 34 µM
GI50 [58]: 5.82 µM
TGI [58]: 16.2 µM
